The results in this text go back to ChEMBL document CHEMBL3994587, “An insight on synthetic and medicinal aspects of pyrazolo[1,5-a]pyrimidine scaffold” (Eur J Med Chem, 2017).

The structures appear in SMILES notation. In brackets after ≈: the same amount, converted by molar mass.

In assay [1] the test system is Staphylococcus aureus. Nature of the assay: Antibacterial activity against Staphylococcus aureus NCTC 7447 assessed as zone of inhibition at 1 mg/ml measured after 24 hrs by agar diffusion method. The conditions noted are these: NCTC 7447, 24 h, read-out: IZ. Format: functional. In general terms: Agar diffusion results depend on both activity and mobility in agar.

The subject of assay [2] is Bacillus subtilis. The assay is described as follows: Antibacterial activity against Bacillus subtilis NCTC 10400 assessed as zone of inhibition at 1 mg/ml measured after 24 hrs by agar diffusion method. The assay is classed as functional. The conditions noted are these: NCTC 10400, 24 h, read-out: IZ.
A further assay has as its system Sarcina. Nature of the assay: Antibacterial activity against Sarcina sp. NCTC 1117 assessed as zone of inhibition at 1 mg/ml measured after 24 hrs by agar diffusion method. The conditions noted are these: NCTC 1117, 24 h, read-out: IZ. Format: functional.
In assay [3] the test system is Escherichia coli. The assay is described as follows: Antibacterial activity against Escherichia coli NCTC 10416 assessed as zone of inhibition at 1 mg/ml measured after 24 hrs by agar diffusion method. The assay is classed as functional. The conditions noted are these: NCTC 10416, 24 h, read-out: IZ.
For a further assay, the system named is Serratia marcescens. Nature of the assay: Antibacterial activity against Serratia marcescens IMRU 70 assessed as zone of inhibition at 1 mg/ml measured after 24 hrs by agar diffusion method. The conditions noted are these: IMRU 70, 24 h, read-out: IZ. Format: functional.
Assay [4] has as its target T1, Translocator protein (Rattus norvegicus, UniProt P16257). Nature of the assay: Displacement of [3H]PK11195 from PBZR in rat kidney mitochondrial membranes measured after 90 mins by liquid scintillation counting. The assay is classed as cell membranes.
Assay [5] concerns the target T1, Translocator protein. The assay is described as follows: Displacement of [3H]Ro5-4864 from PBZR in rat kidney mitochondrial membranes measured after 90 mins by liquid scintillation counting. The assay is classed as cell membranes. In general terms: In a radioligand displacement assay an active substance lowers the binding of a labelled ligand.
For assay [6], the system named is Staphylococcus aureus. The assay is described as follows: Antibacterial activity against Staphylococcus aureus measured after 18 hrs by agar dilution method. The assay is classed as functional. A general note: Agar dilution tests growth on a series of plates holding different concentrations.
Assay [7] deals with Bacillus subtilis. The assay is described as follows: Antibacterial activity against Bacillus subtilis measured after 18 hrs by agar dilution method. The assay is classed as functional.
Assay [8] relates to Escherichia coli. The assay is described as follows: Antibacterial activity against Escherichia coli measured after 18 hrs by agar dilution method. Format: functional.
A further assay concerns Pseudomonas aeruginosa. Nature of the assay: Antibacterial activity against Pseudomonas aeruginosa measured after 18 hrs by agar dilution method. Format: functional.
For assay [9], the system named is Candida albicans. Nature of the assay: Antifungal activity against Candida albicans measured after 18 hrs by agar dilution method. The assay is classed as functional.
In assay [10] the test system is Staphylococcus aureus. Nature of the assay: Antibacterial activity against Staphylococcus aureus RCMB 000108 assessed as zone of inhibition at 30 ug/ml. Format: functional. The conditions noted are these: read-out: IZ.
Assay [11] deals with Bacillus subtilis. The assay is described as follows: Antibacterial activity against Bacillus subtilis RCMB 000109 assessed as zone of inhibition at 30 ug/ml. Format: functional. The conditions noted are these: read-out: IZ.
Assay [12] deals with Escherichia coli. Nature of the assay: Antibacterial activity against Escherichia coli RCMB 000106 assessed as zone of inhibition at 30 ug/ml. The conditions noted are these: read-out: IZ. The assay is classed as functional.
In another assay the test system is Aspergillus fumigatus. Nature of the assay: Antifungal activity against Aspergillus fumigatus RCMB 002006 assessed as zone of inhibition at 30 ug/ml. Format: functional. The conditions noted are these: read-out: IZ.
The test system of the next assay is Geotrichum candidum. Nature of the assay: Antifungal activity against Geotrichum candidum 052008 assessed as zone of inhibition at 30 ug/ml. Format: functional. The conditions noted are these: read-out: IZ.
In assay [13] the test system is Syncephalastrum racemosum. Nature of the assay: Antifungal activity against Syncephalastrum racemosum 005004 assessed as zone of inhibition at 30 ug/ml. The assay is classed as functional. The conditions noted are these: read-out: IZ.
Another assay relates to Salmonella typhi. Nature of the assay: Antibacterial activity against Salmonella typhi MTCC 98 assessed as zone of inhibition at 25 to 150 ug/ml measured after 24 hrs by agar well diffusion method. The assay is classed as functional, Salmonella enterica subsp. enterica serovar Typhi.
The test system of assay [14] is Escherichia coli. Nature of the assay: Antibacterial activity against Escherichia coli MTCC 443 assessed as zone of inhibition at 25 to 150 ug/ml measured after 24 hrs by agar well diffusion method. Format: functional.
The test system of assay [15] is Bacillus subtilis. Nature of the assay: Antibacterial activity against Bacillus subtilis MTCC 441 assessed as zone of inhibition at 25 to 150 ug/ml measured after 24 hrs by agar well diffusion method. The assay is classed as functional.
The next assay concerns Aspergillus niger. The assay is described as follows: Antifungal activity against Aspergillus niger assessed as zone of inhibition at 25 to 150 ug/ml measured after 24 to 48 hrs by agar well diffusion method. Format: functional.
The test system of the next assay is Aspergillus flavus. The assay is described as follows: Antifungal activity against Aspergillus flavus MTCC 3008 assessed as zone of inhibition at 25 to 150 ug/ml measured after 24 to 48 hrs by agar well diffusion method. Format: functional.
In assay [16] the test system is Candida albicans. Nature of the assay: Antifungal activity against Candida albicans MTCC 227 assessed as zone of inhibition at 25 to 150 ug/ml measured after 24 to 48 hrs by agar well diffusion method. The assay is classed as functional.
A further assay has as its system Penicillium chrysogenum. Nature of the assay: Antifungal activity against Penicillium chrysogenum MTCC 160 assessed as zone of inhibition at 25 to 150 ug/ml measured after 24 to 48 hrs by agar well diffusion method. Format: functional.
Another assay has as its system Tritrichomonas foetus. Nature of the assay: Anti-parasitic activity against Tritrichomonas foetus measured after 48 hrs by microscopic analysis. The assay is classed as functional.
The test system of assay [17] is Staphylococcus aureus. Nature of the assay: Antibacterial activity against Staphylococcus aureus MTCC 96 assessed as zone of inhibition at 25 to 150 ug/ml measured after 24 hrs by agar well diffusion method. Format: functional.

T1 sequence (P16257 whole entry, looked up): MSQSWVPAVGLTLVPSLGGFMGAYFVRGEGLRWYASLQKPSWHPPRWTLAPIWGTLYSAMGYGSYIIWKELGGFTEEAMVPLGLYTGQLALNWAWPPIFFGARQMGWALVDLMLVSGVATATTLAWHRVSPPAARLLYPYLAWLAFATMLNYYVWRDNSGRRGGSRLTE

For `COc1ccc(NS(=O)(=O)c2ccc(/N=N/c3c(=O)[nH]n4c(-c5ncccn5)c(C#N)c(N)nc34)cc2)cc1`, the zone of inhibition at 1000 µg/mL in the assay on Staphylococcus aureus [1] fell in the range of 12 to 14 mm; in the assay on Bacillus subtilis [2], 9 to 11 mm; in the assay with Sarcina, 15 to 18 mm; with Escherichia coli [3], 15 to 18 mm; in the assay on Serratia marcescens, 15 to 18 mm.
The Ki is a dissociation constant, usually derived from enzyme kinetics or from competition with a known ligand. `CCC(CC)C(=O)Cc1c(-c2ccc(OC)cc2)nn2c(C)cc(C)nc12`: the Ki was 4.7 nM on Translocator protein [4] and 3.1 nM on Translocator protein [5].
One may read the MIC as the lowest concentration found to suppress growth. Lower therefore signals a more susceptible organism. Turning to `Cc1nc(-c2ccccc2)sc1-c1ccn2nc(C#N)cc2n1`, the MIC against Staphylococcus aureus [6] was not below 800 µg/mL; with Bacillus subtilis [7], not below 800 µg/mL; against Escherichia coli [8] it was not below 800 µg/mL; with Pseudomonas aeruginosa, not below 800 µg/mL; with Candida albicans [9], not below 400 µg/mL.
As for `Cc1nc(-c2ccccc2)sc1-c1ccn2nc(-c3ccccc3)cc2n1`, the MIC with Staphylococcus aureus [6], against Bacillus subtilis [7], against Escherichia coli [8], against Pseudomonas aeruginosa and against Candida albicans [9] was not below 800 µg/mL throughout.
Turning to `Nc1nn2c(-c3ccco3)cc(-c3ccco3)nc2c1/N=N/c1ccccc1`, the zone of inhibition at 30 µg/mL in the assay with Staphylococcus aureus [10] is 16.7 mm; in the assay with Bacillus subtilis [11], 15.7 mm; with Escherichia coli [12] it was 15.2 mm; in the assay on Aspergillus fumigatus, 14.2 mm; with Geotrichum candidum it was 15.3 mm; in assay [13] it was 10.2 mm.
Regarding `Cc1nn(-c2ccccc2)c(Cl)c1-c1cc(-c2cc(Cl)cc(Cl)c2O)nc2c(/N=N/c3ccc(Cl)cc3)c(N)nn12`, the “inhibition zone (IZ)” value with Salmonella typhi was found to be 24 mm; in the assay on Escherichia coli [14], 26 mm; with Bacillus subtilis [15], 16 mm; in the assay on Aspergillus niger it was 18 mm; in the assay with Aspergillus flavus, 21 mm; with Candida albicans [16] it was 17 mm. Also, in the assay with Penicillium chrysogenum, the “inhibition zone (IZ)” value is given as 24 mm.
For the compound `Cc1ncc([N+](=O)[O-])n1CCO` [METRONIDAZOLE], the MLC with Tritrichomonas foetus was determined as 10 µg/mL (≈ 58.4 µM). For the same compound, in the assay with Tritrichomonas foetus (Tritrichomonas foetus, 48 h), the minimum inhibitory concentration (MIC) worked out at 3.2 µg/mL (≈ 18.7 µM).
With `Cc1ccc(-c2cc(-c3c(C)nn(-c4ccccc4)c3Cl)n3nc(N)c(/N=N/c4ccc(Cl)cc4)c3n2)c(O)c1Br`, the “inhibition zone (IZ)” value in the assay on Salmonella typhi worked out at 30 mm; with Escherichia coli [14], 19 mm; with Staphylococcus aureus [17], 10 mm; in the assay with Aspergillus niger, 14 mm; in the assay on Aspergillus flavus, 17 mm; in the assay on Candida albicans [16], 15 mm. The “inhibition zone (IZ)” value with Penicillium chrysogenum came to 16 mm.
Take `Cc1nc(-c2ccccc2)sc1-c1ccn2ncc(-c3ccccc3)c2n1`: the MIC was not below 800 µg/mL against Staphylococcus aureus [6]; not below 400 µg/mL in the assay on Bacillus subtilis [7]; not below 800 µg/mL with Escherichia coli [8]; not below 400 µg/mL against Pseudomonas aeruginosa; not below 400 µg/mL against Candida albicans [9].
For the compound `Cc1nc(-c2ccccc2)sc1-c1ccn2nc(C)c(-c3ccccc3)c2n1`, the MIC in the assay on Staphylococcus aureus [6] was not below 800 µg/mL; in the assay on Bacillus subtilis [7], not below 400 µg/mL; in the assay with Escherichia coli [8], not below 400 µg/mL; against Pseudomonas aeruginosa it was not below 800 µg/mL; in the assay on Candida albicans [9], not below 400 µg/mL.
For `CCC(CC)C(=O)Cc1c(-c2ccc(C)cc2)nn2c(C)cc(C)nc12`, the Ki at Translocator protein [4] worked out at 0.8 nM; at Translocator protein [5], 1.7 nM.
`OC(Cn1cncn1)(Cn1cncn1)c1ccc(F)cc1F` [FLUCONAZOLE]: the MIC in the assay with Staphylococcus aureus [6] was not below 800 µg/mL; in the assay on Bacillus subtilis [7], not below 800 µg/mL; with Escherichia coli [8], not below 800 µg/mL; against Pseudomonas aeruginosa, not below 800 µg/mL; in the assay with Candida albicans [9], not above 25 µg/mL.
As to `Cc1nn(-c2ccccc2)c(Cl)c1-c1cc(-c2cc(Cl)cc(I)c2O)nc2c(/N=N/c3ccc(Cl)cc3)c(N)nn12`, the “inhibition zone (IZ)” value with Salmonella typhi was found to be 16 mm; in the assay with Escherichia coli [14] it was 17 mm; in the assay on Bacillus subtilis [15] it was 15 mm; in the assay with Staphylococcus aureus [17] it was 18 mm; in the assay on Aspergillus niger it was 26 mm; in the assay with Aspergillus flavus, 21 mm. Besides, the “inhibition zone (IZ)” value in the assay with Candida albicans [16] is 19 mm; in the assay on Penicillium chrysogenum, 17 mm.
